tested on: primary human monocytes; assay: Immunomodulation in human monocytes: cytokine/PGE2 release measured by ELISA after 24 h incubation; assay type: cell-based; conditions: up to the highest concentration studied (0.68 μg/mL and 0.59 μg/mL respectively)
Protocol: Monocyte cell cultures: Primary human monocytes were prepared from the buffy coat of healthy human blood donors using a standardized procedure.
Cells were seeded in 24-well plates at a density of 2200000 cells/well for ELISA measurements. Monocytes were incubated with test elements (5 different concentrations) for 24 h. LPS (10 ng/mL, Salmonella typhimurium SL1181) served as a positive control for cytokine release. After 24 h, supernatants were removed, centrifuged and studied for IL-1β, MCP-1, IL-6, TNF and IL-8 concentrations by ELISA using the manufacturer's protocol (n=6, 3 different donors).

| SMILES | effect on basal cytokine release in human monocytes |
| --- | --- |
| [Se] [selenium] | Neither selenium, vitamin B6 nor vitamin D3 had any effect |
| Cc1ncc(CO)c(CO)c1O.Cl [vitamin B6] | Neither selenium, vitamin B6 nor vitamin D3 had any effect |
| C=C1CC[C@H](O)C/C1=C/C=C1\CCC[C@]2(C)[C@@H]([C@H](C)CCCC(C)C)CC[C@@H]12 [vitamin D3, cholecalciferol] | Neither selenium, vitamin B6 nor vitamin D3 had any effect |

— patent US20240165174A1, “[…]-BASED COMPOSITION AND USES THEREOF FOR R[…]” (priority 2021, published 2024)
